# In US20100298280A1, “Compounds for the Modulation of Huntingtin Aggregation, Methods and Means for Identifying Such Compounds” (priority 2007, published 2010):
# Test system: CHO-AA8/Q68-Q68 cells
# Assay: Propidium iodide exclusion assay (viability, cell number) following the FRET assay
# Settings: after 48 h
# Description: CHO-AA8/Q68-Q68, CHO-AA8/Q17-Q17 and CHO-AA8 cells were seeded in 96 well plates. After attachment of the cells, the medium was exchanged for Ham's F 12 medium containing 10% doxicycline free FBS and 2% DMSO supplemented with compounds. After 48 h the fluorescence intensities of cells were measured using a fluorescence plate reader (Fluoroscan Ascent, Thermo Scietific) and filtersets for CFP (ex 444 nm, em 485 nm), YFP(ex 485 nm, em 538 nm) and FRET (ex 444 nm, em 538 nm). After correction of background fluorescence (subtraction of CHO-AA8 cell fluorescence intensities) the FRET signal was determined using the method: FA=(FRET-a*YFP)/CFP with a=0.11 (Zal u. Gascoigne 2004, Zal et al. 2002). In following, the viability of cells was measured using a propidium iodide exclusion assay (Sattler et al. 1997). PI was added to the cells at final concentration of 0.15 mg/ml. After 15 minutes the PI fluorescence intensity was measured (ex 530 nm, em 620 nm). The cells were then lysed with 0.5% Triton X-100 (TX100) and the PI fluorescence intensity was measured again. Viability of cells was calculated as viability=1−(PIbefore TX100/PIafter TX100).
# (§1) The FRET-measurement was performed 48 h later.
Compound,Cell number (effect in words),Cell number ↓ (concentration)
COC1=C(OC)C(=O)C(C/C=C(\C)CC/C=C(\C)CC/C=C(\C)CC/C=C(\C)CC/C=C(\C)CC/C=C(\C)CC/C=C(\C)CC/C=C(\C)CC/C=C(\C)CCC=C(C)C)=C(C)C1=O [coenzyme Q10],no effect,–
CN(CC(=O)O)C(=N)N [Creatine],no effect,–
C[C@@H](N)[C@H]1CC[C@H](C(=O)Nc2ccncc2)CC1 [Y-27632],no effect,–
Nc1nc2ccc(OC(F)(F)F)cc2s1 [Riluzole],no effect,–
O=C(O)Cc1ccccc1Nc1c(Cl)cccc1Cl [Diclofenac],–,↓ ≧250 nM
O=C(O)c1cc(/N=N/c2ccc(-c3ccc(/N=N/c4ccc(O)c(C(=O)O)c4)cc3)cc2)ccc1O [chrysamine G],no effect,–
C=CCNC1=C2C[C@@H](C)C[C@H](OC)[C@H](O)[C@@H](C)/C=C(\C)[C@H](OC(N)=O)[C@@H](OC)/C=C\C=C(/C)C(=O)NC(=CC1=O)C2=O [17-AAG],–,↓ ≧0.3 μM

# Same assay, conditions: propidium iodide exclusion, after 48 h
Compound,Viability (effect in words),Viability ↓ (concentration)
COC1=C(OC)C(=O)C(C/C=C(\C)CC/C=C(\C)CC/C=C(\C)CC/C=C(\C)CC/C=C(\C)CC/C=C(\C)CC/C=C(\C)CC/C=C(\C)CC/C=C(\C)CCC=C(C)C)=C(C)C1=O [coenzyme Q10],no effect,–
CN(CC(=O)O)C(=N)N [Creatine],no effect,–
C[C@@H](N)[C@H]1CC[C@H](C(=O)Nc2ccncc2)CC1 [Y-27632],no effect,–
O=C([O-])c1ccccc1O.[Na+] [sodiumsalicylat],no effect,–
Nc1nc2ccc(OC(F)(F)F)cc2s1 [Riluzole],no effect,–
O=C(O)Cc1ccccc1Nc1c(Cl)cccc1Cl [Diclofenac],no effect,–
O=C(O)c1cc(/N=N/c2ccc(-c3ccc(/N=N/c4ccc(O)c(C(=O)O)c4)cc3)cc2)ccc1O [chrysamine G],no effect,–
C=CCNC1=C2C[C@@H](C)C[C@H](OC)[C@H](O)[C@@H](C)/C=C(\C)[C@H](OC(N)=O)[C@@H](OC)/C=C\C=C(/C)C(=O)NC(=CC1=O)C2=O [17-AAG],–,↓ ≧0.3 μM

# Biological target: T1, mutant huntingtin aggregates (HDex1Q68 fused to ECFP/EYFP) (Homo sapiens, UniProt P42858, INS38QQQQQQQQQQQQQQQQQQQQQQQQQQQQQQQQQQQQQQQQQQQQQQQ)
# Assay: Cellular FRET aggregation assay in stable Tet-off CHO-AA8/Q68-Q68 cells
# Format: cell-based
# Settings: half-maximal inhibition of FRET signal, dose response 0.7-50 μM
# T1 sequence (P42858 1-88, stated change not applied): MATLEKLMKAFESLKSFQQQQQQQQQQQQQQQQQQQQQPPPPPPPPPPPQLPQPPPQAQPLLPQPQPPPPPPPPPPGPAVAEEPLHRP
row,Compound,EC50 [µM]
1,"C=C1[C@@H]2CC[C@@]3(C)[C@H](c4ccoc4)OC(=O)C[C@]13O[C@H]1CC(=O)C(C)(C)[C@H](CC(=O)OC)[C@]12C [S2, angolensic acid methylester]",3

# Biological target: T1, mutant huntingtin aggregates (HDex1Q68 fused to ECFP/EYFP)
# Assay: as above
# Format: cell-based
# Settings: 48 h, 2% DMSO
# Description: To determine the potential of possibly inhibiting substances the inventors performed dose response assays at concentrations ranging from 1, to 100 μM.
# Screening was performed in 96-well plates (greiner bio-one) containing 1×10^4 cells/well of the stably inducible tet off cell lines htt-mut (six-fold) and CHO-AA8 line (three fold) for background control. Simultaneously, each compound was checked for its potential autofluorescence.
# Two stable inducible CHO Tet off cell lines were constructed expressing simultaneously wildtype (CHO-AA8/Q17-Q17) or mutant (CHO-AA8/Q68-Q68) huntingtin fragments fused to ECFP or EYFP (FIG. 1B) after withdrawal of doxicycline (dox). Basal and induced expression levels of huntingtin fusion proteins were examined by Western blot analysis at different time intervals (4, 24, 48, and 72 hours). […] For the screening approach stable inducible huntingtin expressing cell lines were seeded in 96-well plates and the fluorescence intensities were measured with a fluorescence plate reader.
# The test compounds were mixed in a fresh doxicycline-free medium with 2% DMSO and added to the Tet off cell lines two to three hours after seeding and attachment of the cells.
# as §1
# Subsequently, a second screening round was performed at concentration range 1, 3, and 10 μM, respectively.
Compound,FRET-signal (effect in words),FRET-signal ↓ (concentration from which aggregation is reduced)
COC1=C(OC)C(=O)C(C/C=C(\C)CC/C=C(\C)CC/C=C(\C)CC/C=C(\C)CC/C=C(\C)CC/C=C(\C)CC/C=C(\C)CC/C=C(\C)CC/C=C(\C)CCC=C(C)C)=C(C)C1=O [coenzyme Q10],no effect,–
CN(CC(=O)O)C(=N)N [Creatine],no effect,–
C[C@@H](N)[C@H]1CC[C@H](C(=O)Nc2ccncc2)CC1 [Y-27632],no effect,–
O=C([O-])c1ccccc1O.[Na+] [sodiumsalicylat],no effect,–
O=C(O)Cc1ccccc1Nc1c(Cl)cccc1Cl [Diclofenac],no effect,–
O=C(O)c1cc(/N=N/c2ccc(-c3ccc(/N=N/c4ccc(O)c(C(=O)O)c4)cc3)cc2)ccc1O [chrysamine G],no effect,–
C=CCNC1=C2C[C@@H](C)C[C@H](OC)[C@H](O)[C@@H](C)/C=C(\C)[C@H](OC(N)=O)[C@@H](OC)/C=C\C=C(/C)C(=O)NC(=CC1=O)C2=O [17-AAG],–,↓ ≧0.3 μM

# Same assay, conditions: 48 h, 2% DMSO, listed as Chrysamine G
row,Compound,FRET-signal (effect in words)
1,O=C(O)c1cc(/N=N/c2ccc(-c3ccc(/N=N/c4ccc(O)c(C(=O)O)c4)cc3)cc2)ccc1O [chrysamine G],no effects

# Same assay, conditions: 48 h, 2% DMSO, listed as creatin
row,Compound,FRET-signal (effect in words)
1,CN(CC(=O)O)C(=N)N [Creatine],no effects

# Same assay, conditions: 48 h, 2% DMSO, listed as diclofenac
row,Compound,FRET-signal (effect in words)
1,O=C(O)Cc1ccccc1Nc1c(Cl)cccc1Cl [Diclofenac],no effects

# Same assay, conditions: 48 h, 2% DMSO, listed as sodiumsalyicylate
row,Compound,FRET-signal (effect in words)
1,O=C([O-])c1ccccc1O.[Na+] [sodiumsalicylat],no effects

# Same assay, conditions: FRET decrease attributed to toxicity
row,Compound,apparent inhibitory effects due to toxic effects (concentration) [µM]
1,C[C@@H](N)[C@H]1CC[C@H](C(=O)Nc2ccncc2)CC1 [Y-27632],> 12.5
2,C=CCNC1=C2C[C@@H](C)C[C@H](OC)[C@H](O)[C@@H](C)/C=C(\C)[C@H](OC(N)=O)[C@@H](OC)/C=C\C=C(/C)C(=O)NC(=CC1=O)C2=O [17-AAG],> 0.7
